{
  "source": "patent US20260297164A1",
  "about": "“ANTI-FIBROTIC PEPTIDES AND USES THEREOF” (Deackt, Inc., priority 2021, published 2026)",
  "molecules": {"B1": {"name": "FasL: Soluble recombinant human FasL (protein, UniProt P48023 103-281, looked up)", "extracellular domain": "QLFHLQKELAELRESTSQMHTASSLEKQIGHPSPPPEKKELRKVAHLTGKSNSRSMPLEWEDTYGIVLLSGVKYKKGGLVINETGLYFVYSKVYFRGQSCNNLPLSHKVYMRNSKYPQDLVMMEGKMMSYCTTGQMWARSSYLGAVFNLTSADHLYVNVSELSLVNFEESQTFFGLYKL", "modifications": "extracellular domain soluble recombinant"}},
  "key": {"[1]": {"test_system": "Col1a1 expression in CD148-deficient (Ptprj−/−) lung fibroblasts", "assay": "Col1a1 qPCR in CD148-deficient lung fibroblasts with NF-κB inhibitor", "type": "cell-based, mouse", "conditions": "CD148-deficient cells, TGF-β1 10 ng/ml; Bay 11-7082 10 μM", "experimental": "FIG. 4. CD148 deficiency enhances PI3K/Akt/mTOR signaling which results in enhanced NF-κB activation in lung fibroblasts. (A) WT and Ptprj−/− cells were stimulated with TGF-β1 (10 ng/ml) for 24 h. Cells were lysed and p-IKKα/β, p-IκB and IκB were measured by western blot (n=4). GAPDH was the standard. Bar graphs at right are the quantitation of corresponding proteins. (B) WT and Ptprj−/− cells were stimulated with TGF-β1 (10 ng/ml) for 24 h. Cells were subjected to cytosol and nuclear protein fractionation. The p65 (NF-κB subunit) nuclear translocation was measured by western blot (n=3). β-actin and PCNA were used as cytosolic and nuclear markers, respectively. Bar graphs at right are the quantitation of corresponding proteins. p65 cytosolic/nuclear ratio is shown (far right). Data are mean±s.e.m. *P<0.05, by Kurskal-Wallis non-parametric test (C-D) WT or Ptprj−/− cells were transfected with scr or shp62 (lentivirus). Cells were stimulated with TGF-β1 (10 ng/ml) in the presence or absence or wortmannin (wort, 50 nM) or rapamycin (rapa, 1 μM). At 24 h cells were harvested and subjected to qPCR for Col1a1 or Acta2 (n=5). […] Luciferase activity were measured as described in methods (n=4 or 7). […] (F) WT or Ptprj−/− cells were stimulated with TGF-β1 (10 ng/ml) in the presence or absence of the NF-κB inhibitor Bay 11-7082 (10 μM). mRNA levels of Col1a1 were measured by qPCR (n=5 for each condition). […]"}, "[2]": {"test_system": "α-SMA in CD148-deficient (Ptprj−/−) lung fibroblasts", "assay": "α-SMA western blot in CD148-deficient lung fibroblasts with PI3K/mTOR inhibitors", "type": "cell-based, mouse", "conditions": "CD148-deficient cells, TGF-β1 10 ng/ml; wortmannin 50 nM or rapamycin 1 μM, 24 h", "experimental": "FIG. 3. CD148 deficiency enhances PI3K/Akt/mTOR signaling which results in low autophagy, high p62 expression in lung fibroblasts. (A) Mouse lung fibroblasts were isolated from Ptprj^fl/fl Col1a2^Cre-ER(T)+/0 mice (Ptprj−/−) and Col1a2^Cre-ER(T)+/0 mice (WT) and then treated with 4-OHT (1 μM) for 24 h. After 4-OHT treatment, cells were exposed to TGF-β1 (10 ng/ml) for 24 h. After stimulation, cells were harvested, and the expression of p-p85 (Tyr458), p-Akt (Ser473), pmTOR (Ser2448), p-p70 S6 kinase (Thr389), p-S6 ribosomal protein (Ser235/236) and CD148 (n=4 for each condition) in lysates was determined by Western immunoblotting and corresponding densitometry (ImageJ software). Data were normalized to corresponding dephospho-forms or GAPDH. (B) WT and Ptprj−/− cells were stimulated with TGF-β1 (10 ng/ml) for 24 h. Then cells were lysed and LC3-I and -II and p62 were measured by western blot (n=4). […] Then, autophagy flux was measured by LC3-II accumulation in the absence or presence of lysosomal acidification inhibitor chloroquine (25 μM) at 2, 4 and 6 h (n=4). […] LC3 puncta positive cells were quantified using ImageJ (D). […]\nPolyacrylamide gel electrophoresis and immunoblotting were performed according to standard methods. […] The signals were detected by ECL (Thermo Fisher Scientific, Waltham, MA). […]"}, "[3]": {"test_system": "IPF-derived lung fibroblasts", "assay": "FasL-induced cell death (MTT cell viability)", "type": "cell-based, human", "conditions": "FasL 100 and 200 ng/ml, 24 h", "experimental": "FIG. 1. […] (A) CD148 protein expression levels were determined in lung homogenates from control (n=5) and IPF (n=5) patients. (Graphic) Densitometry (by ImageJ software). (B) Lung specimens from control (n=9) and IPF (n=10) patients were homogenized and subjected to total RNA isolation. Ptprj (CD148) mRNA levels were assessed using qPCR. (C) Single cell suspensions of control (n=6) and IPF (n=7) were enriched for fibroblasts. mRNA expression of CD148 in fibroblast-enriched cell populations were assessed using qPCR. (D) Representative fluorescence microscopy images of CD148 (Cy3, red), Vimentin (GFP, green) and DAPI (blue) in control (n=4) and IPF lung tissue (n=5). Scale bar=100 μm. […] CD148 fluorescence intensity was quantified by ImageJ. […] (E) CD148 protein levels were measured by western blot (n=3). (F) mRNA levels of fibronectin (Fn) and Collagen 1a1 (Col1a1) were measured using qPCR (n=5). […] After treatment, cell viability was determined using the MTT assay (n=5). […] Clusters labeled as fibroblast and myofibroblast were extracted from our previously published scRNA-seq data set and analysed using R-program. […] P values were calculated by Mann-Whitney unpaired test. (L) mRNA expression of CD148 in sorted AT1 and AT2 cells were assessed using qPCR. […] After treatment, cell viability was assessed with the MTT assay (n=4). […]\nFIG. 6. […] (B) mRNA levels of Fn and Col1a1 were measured by qPCR (n=5). […]"}},
  "data": [
    {"molecule": "Cc1ccc(S(=O)(=O)/C=C/C#N)cc1", "note": "[Bay 11-7082]", "values": [
      {"measurement": "TGF-β1-dependent increase in Col1a1 expression", "setting": "[1]", "value": "inhibited"}
    ]},
    {"molecule": "CO[C@H]1C[C@@H]2CC[C@@H](C)[C@@](O)(O2)C(=O)C(=O)N2CCCC[C@H]2C(=O)O[C@H]([C@H](C)C[C@@H]2CC[C@@H](O)[C@H](OC)C2)CC(=O)[C@H](C)/C=C(\\C)[C@@H](O)[C@@H](OC)C(=O)[C@H](C)C[C@H](C)/C=C/C=C/C=C/1C", "note": "[rapamycin]", "values": [
      {"measurement": "increase of a-SMA in response to TGF-β1", "setting": "[2]", "value": "attenuated"}
    ]},
    {"molecule": "COC[C@H]1OC(=O)c2coc3c2[C@@]1(C)C1=C(C3=O)[C@@H]2CCC(=O)[C@@]2(C)C[C@H]1OC(C)=O", "note": "[wortmannin]", "values": [
      {"measurement": "increase of a-SMA in response to TGF-β1", "setting": "[2]", "value": "attenuated"}
    ]},
    {"molecule": "B1", "values": [
      {"measurement": "cell death induced by Fas ligand", "setting": "[3]", "value": "resistant to cell death"}
    ]}
  ]
}
